Laboratory results from ChEMBL document CHEMBL5360530, “Structure activity relationship (SAR) and anticancer activity of pyrrolidine derivatives: Recent developments and future prospects (A review)” (Eur J Med Chem, 2023).
≈ marks a conversion by molar mass, not a printed value.

What was measured:
MCF7 [1] = experiment: Growth inhibition of human MCF7 cells assessed as cell growth inhibition by SRB assay; assay type: functional
PC-3 [2] = experiment: Anticancer activity against human PC-3 cells assessed as cell growth inhibition measured after 48 hrs by MTT assay; assay type: functional, cell-based; details: PC-3, 48 h
HCT-116 [3] = experiment: Potency index, ratio of cisplatin IC50 to test compound IC50 for anticancer activity against human HCT-116 cells; assay type: functional
HCT-116 [4] = experiment: Anticancer activity against human HCT-116 cells assessed as cell growth inhibition measured after 48 hrs by MTT assay; assay type: functional, cell-based; details: HCT-116, 48 h
PC-3 [5] = experiment: Potency index, ratio of cisplatin IC50 to test compound IC50 for anticancer activity against human PC-3 cells; assay type: functional
HepG2 [6] = experiment: Potency index, ratio of cisplatin IC50 to test compound IC50 for anticancer activity against human HepG2 cells; assay type: functional
HepG2 [7] = experiment: Anticancer activity against human HepG2 cells assessed as cell growth inhibition measured after 48 hrs by MTT assay; assay type: functional, cell-based; details: HepG2, 48 h
K562 [8] = experiment: Anticancer activity against human K562 cells assessed as cell growth inhibition measured after 48 hrs by MTT assay; assay type: functional, cell-based; details: K562, 48 h
MCF7 [9] = experiment: Anticancer activity against human MCF7 cells assessed as cell growth inhibition measured after 48 hrs by MTT assay; assay type: functional, cell-based; details: MCF7, 48 h
HT-29 [10] = experiment: Anticancer activity against human HT-29 cells assessed as cell growth inhibition measured after 48 hrs by MTT assay; assay type: functional, cell-based; details: HT-29, 48 h
A549 = experiment: Anticancer activity against human A549 cells assessed as cell growth inhibition measured after 48 hrs by MTT assay; assay type: functional, cell-based; details: A549, 48 h
MCF7 [11] = experiment: Anticancer activity against human MCF7 cells assessed as cell growth inhibition by SRB assay; assay type: functional, cell-based
MDA-MB-435 [12] = experiment: Anticancer activity against human MDA-MB-435 cells assessed as cell growth inhibition by SRB assay; assay type: functional, cell-based
HepG2 [13] = experiment: Anticancer activity against human HepG2 cell assessed as cell growth inhibition; assay type: functional, cell-based
PC-3 [14] = experiment: Anticancer activity against human PC-3 cell assessed as cell growth inhibition; assay type: functional, cell-based
HCT-116 [15] = experiment: Anticancer activity against human HCT-116 cell assessed as cell growth inhibition; assay type: functional, cell-based
PC-3 [16] = experiment: Anticancer activity against human PC-3 cells assessed as cell death at 50 uM measured after 72 hrs by MTT assay relative to control; assay type: functional
MDA-MB-435 [17] = experiment: Growth inhibition of human MDA-MB-435 cells assessed as cell growth inhibition by SRB assay; assay type: functional
MCF7 [18] = experiment: Anticancer activity against human MCF7 cells assessed as cell growth inhibition measured after 24 hrs by SRB assay; assay type: functional, cell-based; details: MCF7, 24 h
Huh-7 = experiment: Anticancer activity against human Huh-7 cells assessed as cell growth inhibition measured after 24 hrs by SRB assay; assay type: functional, cell-based; details: Huh-7, 24 h
HCT-116 [19] = experiment: Anticancer activity against human HCT-116 cells assessed as cell growth inhibition measured after 24 hrs by SRB assay; assay type: functional, cell-based; details: HCT-116, 24 h
Mahlavu = experiment: Anticancer activity against human Mahlavu cells assessed as cell growth inhibition measured after 24 hrs by SRB assay; assay type: functional, cell-based
COS-7 = experiment: Anticancer activity against COS-7 cells assessed as cell growth inhibition at 50 uM measured after 48 hrs by MTT assay relative to control; assay type: functional; details: Chlorocebus aethiops
K562 [20] = experiment: Anticancer activity against human K562 cells assessed as cell growth inhibition measured after 48 hrs by WST-1 assay; assay type: functional, cell-based; details: K562, 48 h
MCF7 [21] = experiment: Anticancer activity against human MCF7 cells assessed as cell growth inhibition measured after 48 hrs by WST-1 assay; assay type: functional, cell-based; details: MCF7, 48 h
MCF7 [22] = experiment: Anticancer activity against human MCF7 cells assessed as cell growth inhibition measured after 24 hrs by MTT assay; assay type: functional, cell-based; details: MCF7, 24 h
HT-29 [23] = experiment: Anticancer activity against human HT-29 cells assessed as cell growth inhibition measured after 24 hrs by MTT assay; assay type: functional, cell-based; details: HT-29, 24 h
[24] = Cytotoxicity against human Chang liver cells assessed as cell growth inhibition measured after 24 hrs by DAPI and propidium iodide staining based assay; assay type: toxicity

O=C(/C=C/c1ccc(Cl)cc1Cl)c1ccc(OCCN2CCCC2)cc1
GI50 (MCF7 [1]): 24.7 µg/mL (≈ 63.3 µM)

O=C(/C=C/c1ccc(Cl)cc1Cl)[C@H]1[C@H](c2ccc(Cl)cc2Cl)[C@H]2CSCN2[C@]12C(=O)Nc1ccccc12
IC50 (PC-3 [2]): ≥ 2.7 µM | Ratio IC50 (HCT-116 [3]): 4 | IC50 (HCT-116 [4]): 2 µM | Ratio IC50 (PC-3 [5]): 1.8 | Ratio IC50 (HepG2 [6]): 2 | IC50 (HepG2 [7]): 1 µM

O=C1CCC(=O)N1CC(=O)N1N=C(c2ccccc2)CC1c1ccccc1 (configuration not stated)
IC50 (K562 [8]): 0.39 µM | IC50 (MCF7 [9]): 0.39 µM | IC50 (HT-29 [10]): 0.39 µM

CCOC(=O)[C@H]1CCCN1CC(=O)Nc1ccc2c(C)cc(=O)oc2c1
IC50 (MCF7 [9]): 0.355 µM | IC50 (A549): 0.024 µM

N#CC1=C(N)OC2=C(c3ccccc3C2=O)C12C(=O)Nc1ccccc12 (configuration not stated)
IC50 (MCF7 [11]): ≥ 53 µM | IC50 (MDA-MB-435 [12]): ≥ 3.6 µM

Cc1cc(=O)oc2cc(NC(=O)CN3CCC[C@@H]3C(N)=O)ccc12
IC50 (MCF7 [9]): 0.355 µM | IC50 (A549): 0.024 µM

O=C(c1c[nH]c2ccccc12)[C@@H]1[C@@H](c2cccc(F)c2)[C@@H]2CSCN2[C@@]12C(=O)Nc1ccccc12
IC50 (HepG2 [13]): 5.5 µM | IC50 (PC-3 [14]): 8 µM | Ratio IC50 (PC-3 [5]): >2.9 | IC50 (HCT-116 [15]): 9 µM

COC(=O)[C@H]1C[C@@H](C(=O)OC)C(c2ccccc2)(c2ccccc2)N1C(=O)Cn1cc(C2CC2)nn1
Activity (PC-3 [16]): 25%

O=C(/C=C/c1c(Cl)cccc1Cl)c1ccc(OCCN2CCCC2)cc1
GI50 (MCF7 [1]): > 80 µg/mL

O=C(/C=C/c1cccc([N+](=O)[O-])c1)[C@H]1[C@H](c2cccc([N+](=O)[O-])c2)[C@H]2CSCN2C12C(=O)Nc1ccccc12 (some centres not stated)
IC50 (PC-3 [2]): ≥ 2.7 µM | Ratio IC50 (HCT-116 [3]): 4 | IC50 (HCT-116 [4]): 2.5 µM | Ratio IC50 (PC-3 [5]): 1.8 | Ratio IC50 (HepG2 [6]): 2 | IC50 (HepG2 [7]): 1 µM

N#CC1=C(N)OC2=C(C(=O)CO2)C12C(=O)Nc1ccc(I)cc12 (configuration not stated)
IC50 (MCF7 [11]): ≥ 53 µM | GI50 (MDA-MB-435 [17]): 27.3 µM | IC50 (MDA-MB-435 [12]): ≥ 3.6 µM

CC(C)C[C@@H]1N2[C@H](c3ccccc3)[C@H](c3ccccc3)OC(=O)[C@H]2[C@H](c2ccc([N+](=O)[O-])cc2)[C@@]12C(=O)Nc1ccccc12
IC50 (MCF7 [18]): 4.8 µM | IC50 (Huh-7): 77.8 µM | IC50 (HCT-116 [19]): 3.9 µM | IC50 (Mahlavu): 14.9 µM

COc1ccc(C2NCCC23C(=O)Nc2ccccc23)cc1OC (configuration not stated)
inhibition at 50 µM (COS-7): 0.51%

N#CC1=C(N)OC2=C(c3ccccc3C2=O)C12C(=O)Nc1ccc(Cl)cc12 (configuration not stated)
IC50 (MCF7 [11]): ≥ 53 µM | IC50 (MDA-MB-435 [12]): ≥ 3.6 µM

O=C(c1c[nH]c2ccccc12)[C@@H]1[C@@H](c2ccc(Br)cc2)[C@@H]2CSCN2[C@@]12C(=O)Nc1ccccc12
IC50 (HepG2 [13]): 5.5 µM | IC50 (PC-3 [14]): 7 µM | Ratio IC50 (PC-3 [5]): >3

O=C(c1c[nH]c2ccccc12)[C@@H]1[C@@H](c2cccc(C(F)(F)F)c2)[C@@H]2CSCN2[C@@]12C(=O)Nc1ccccc12
IC50 (HepG2 [13]): 5.5 µM | IC50 (HCT-116 [15]): 7 µM

O=C(/C=C/c1ccc(Cl)cc1)[C@H]1[C@H](c2ccc(Cl)cc2)[C@H]2CSCN2[C@]12C(=O)Nc1ccccc12
IC50 (PC-3 [2]): ≥ 2.7 µM | Ratio IC50 (HCT-116 [3]): 4 | IC50 (HCT-116 [4]): 2.5 µM | Ratio IC50 (PC-3 [5]): 1.8 | Ratio IC50 (HepG2 [6]): 2 | IC50 (HepG2 [7]): 1 µM

CC(C)C[C@@H]1N2[C@H](c3ccccc3)[C@H](c3ccccc3)OC(=O)[C@H]2[C@H](c2ccccc2Cl)[C@@]12C(=O)Nc1ccccc12
IC50 (MCF7 [18]): 11.2 µM | IC50 (Huh-7): 36.6 µM | IC50 (HCT-116 [19]): 10.5 µM | IC50 (Mahlavu): 26.3 µM

O=C1/C(=C/c2ccc(Br)cc2)CCC[C@]12[C@@H](c1ccc(Br)cc1)[C@@H]1CSCN1[C@]21C(=O)Nc2ccccc21
IC50 (K562 [20]): 14.7 µM | IC50 (MCF7 [21]): 15.3 µM

CC(C)(C)c1cc(/C=N/N2C(=O)c3ccccc3C2=O)c(O)c(C(C)(C)C)c1
IC50 (MCF7 [22]): 293 µM | IC50 (HT-29 [23]): 667 µM

CCCC(C)c1cn(CC(=O)N2[C@@H](C(=O)OC)C[C@@H](C(=O)OC)C2(c2ccccc2)c2ccccc2)nn1 (some centres not stated)
Activity (PC-3 [16]): 25%

O=C(c1c[nH]c2ccccc12)[C@@H]1[C@@H](c2cccc(Br)c2)[C@@H]2CSCN2[C@@]12C(=O)Nc1ccccc12
IC50 (HepG2 [13]): 5.5 µM | IC50 (PC-3 [14]): 8 µM | Ratio IC50 (PC-3 [5]): >2.9 | IC50 (HCT-116 [15]): 9 µM

COc1cccc2c1C(=O)c1c(O)c3c(c(O)c1C2=O)C[C@@](O)(C(=O)CO)C[C@@H]3O[C@H]1C[C@H](N)[C@H](O)[C@H](C)O1.Cl [DOXORUBICIN HYDROCHLORIDE]
GI50 (MCF7 [1]): < 10 µg/mL

CC(=O)O[C@H]1C(=O)[C@@]2(C)[C@H]([C@H](OC(=O)c3ccccc3)[C@]3(O)C[C@H](OC(=O)[C@H](O)[C@@H](NC(=O)c4ccccc4)c4ccccc4)C(C)=C1C3(C)C)[C@]1(OC(C)=O)CO[C@@H]1C[C@@H]2O [PACLITAXEL]
IC50 (K562 [8]): 0.35 µM | IC50 (MCF7 [9]): 47.2 µM | IC50 (HT-29 [10]): 19.9 µM

CCc1ccc(CCOc2ccc(CC3SC(=O)NC3=O)cc2)nc1 (configuration not stated) [PIOGLITAZONE]
IC50 (K562 [8]): 0.29 µM | IC50 (MCF7 [9]): 0.07 µM | IC50 (HT-29 [10]): 40.3 µM

CC/C(=C(\c1ccccc1)c1ccc(OCCN(C)C)cc1)c1ccccc1 [TAMOXIFEN]
IC50 at 24 h [24]: 46.2 µM | GI50 (MCF7 [1]): < 10 µg/mL | IC50 (MCF7 [22]): 20.2 µM
